From patent US10159676B2, “Induction of tumor hypoxia for cancer therapy” (Virginia Commonwealth University, priority 2008, dated 2018)

Legend:
UCI-101 tumor xenografts = assay: Tumor xenograft size after multiple dosing (days 8, 10, 12); type: in vivo, nude mice; details: ip on days 8, 10 and 12; stilbene 5c 50 mg/kg, tirapazamine 60 mg/kg; day 14; 6 mice per group
Description: The long and short axes of tumor were measured to calculate tumor size and plotted against days. Each treatment group contains 6 mice.
Mice were then sacrificed at day 14. The long and short axes of tumors were measured to calculate tumor size and plotted against days. Each treatment group contains 6 mice.
Tumor cell lines used in this study include UCI-101 ovarian cancer cells and Hep3B hepatocellular carcinoma cells. Cells are grown in IMEM and DMEM, respectively, supplemented with 10% fetal bovine serum, glutamine, and penicillium/streptomycin in 5% CO2 humidified environment. When cells were grown to 80% confluent, cells were harvested with 1% trypsin and washed with phosphate-buffered saline three times before injected subcutaneously into nude mice. For mouse xenograft studies, 2×10^6 tumor cells were injected in the back subcutaneously. Nude mice were purchased from NCI Development Therapeutic Program as described. Tumor size was monitored by long and short axes (a and b, respectively) by a caliber and tumor volume was calculated by the formula ab^2/2. […] Treatment with AAA bevacizumab was done by tail vein injection at a dose of 10 mg/kg.
Next we measured the size of tumor xenografts after multiple dosing. Nude mice were injected subcutaneously with UCI-101 cells and tumor became visible after day 7. […] Tumor xenografts were measured and sizes are plotted in FIG. 7.

UCI-101 tumor xenograft = assay: Tumor growth, stilbene 5c with or without bevacizumab; type: in vivo, nude mice
Description: FIG. 4. Efficacy of stilbene 5c in vivo and enhanced effect by bevacizumab. Nude mice were injected with UCI-101 cells subcutaneously and mice are treated with stilbene 5c at 20 mg/kg/day Monday-Friday with or without bevacizumab 10 mg/kg twice a week. Tumor volume was calculated by the long and short axes. Each group contains 8 mice and the average tumor volumes and standard deviations were plotted against days.
Tumor cell lines used in this study include UCI-101 ovarian cancer cells and Hep3B hepatocellular carcinoma cells. Cells are grown in IMEM and DMEM, respectively, supplemented with 10% fetal bovine serum, glutamine, and penicillium/streptomycin in 5% CO2 humidified environment. When cells were grown to 80% confluent, cells were harvested with 1% trypsin and washed with phosphate-buffered saline three times before injected subcutaneously into nude mice. For mouse xenograft studies, 2×10^6 tumor cells were injected in the back subcutaneously. Nude mice were purchased from NCI Development Therapeutic Program as described. Tumor size was monitored by long and short axes (a and b, respectively) by a caliber and tumor volume was calculated by the formula ab^2/2. […]. Treatment with AAA bevacizumab was done by tail vein injection at a dose of 10 mg/kg.
Next we used ovarian cancer UCI101 cells to study the in vivo efficacy of stilbene 5c We first administered stilbene 5c with intraperitoneal injection at 25 mg/kg three times a week. Tumor volume was calculated by measuring the long and short axes. […] The failure could be due to the possibility that intermittent dosing leaves a viable rim of tumor, which survives the treatment of VDAs by getting nutritional and blood support from surrounding normal vasculature. When treatment with VDAs is stopped, the viable rim of tumor grows quickly. Tumor vasculature recovers quickly by recruitment of the mobilized endothelial progenitor cells. Based on this rationale, we combined stilbene 5c with bevacizumab, which was used to neutralize VEGF secreted by UCI-101 tumor cells. […]

UCI101 tumor xenografts = assay: Tumor necrosis in H&E sections three days after treatment; details: tirapazamine 60 mg/kg ip, 60 min later stilbene 5c 50 mg/kg ip; sacrificed three days later
Description: Mice were sacrificed three days later and tumors were harvested for H&E section. […] The portion of tumor that stained darker is viable, whereas the portion in lighter color is the necrotic area.
After 60 min, stilbene 5c was administered intraperitoneally at 50 mg/kg, which has been established to be capable of inducing profound tumor hypoxia within minutes (FIG. 3). […] Mice were then sacrificed three days later. Tumors were harvested and the center portion of tumor was sliced and analyzed with histological section and H&E staining.

[1] = system: UCI-101 ovarian cancer tumor xenografts; assay: Real-time measurement of tumor oxygen and blood flow (OxyLite/OxyFlo); type: in vivo, nude mice; details: 50 mg/kg intraperitoneal
Description: FIG. 3. Tumor blood flow and oxygen content in tumor. Oxygen and blood flow were monitored by OxyFlo and OxyLite system (Optronix, Oxford, UK). Mice were anesthetized with isoflurane and a triple sensor that records temperature, oxygen and blood flow was inserted into tumor and left for 1 hour for recording. Shown are the results of three mice with similar size subcutaneous tumors derived from UCI-101 ovarian cancer cells. Top panels are oxygen level and lower panels are tumor blood flow. Timing of St5c injection was marked.
Nude mice were injected subcutaneously with UCI-101 ovarian cancer cells to form tumor xenografts. Tumor xenografts were subjected to oxygen and blood flow study when tumor size reached 8-10 mm in largest diameter. Tumor was punctured with 25 G needle to make a tunnel for insertion of sensor probe. The tip of the sensor probe was left in the center of the tumor. Tumor oxygen level and blood flow were determined by OxyLite 2000 dual channel monitoring system with “bare-fibre” type sensor probe, which is designed for measuring tissue oxygen, temperature and blood flow using laser Doppler technique (Optonix, oxford, UK). The measurement was done in a real time basis (100 measurements per second) and the oxygen level and tumor blood flow were recording continuously. Because the initial trauma induced by needle and insertion of sensor probe can interfere with blood flow and oxygenation, each mouse was recorded first without treatment for at least 20 min before the mice was injected intraperitoneally with the tested VDA cis-3, 4′,5-trimethoxy-3′-aminostilbene (stilbene 5c) at 50 mg/kg. The tumor blood flow and oxygen level was then recorded for another 20 min after treatment.
In this study, we performed proof of concept study with VDA stilbene 5c to confirm that stilbene 5c induce tumor hypoxia. […]
There are several issues that need to be considered in order to interpret the results. […] All mice were thus recorded for at least 20 min to record the pre-treatment baseline. […]

COc1cc(/C=C\c2ccc(OC)c(N)c2)cc(OC)c1 [stilbene 5c, cis-3, 4′, 5-trimethoxy-3′-aminostilbene]
size of tumor compared with the control (UCI-101 tumor xenografts): about 50%
difference in tumor growth between control and treated mice (UCI-101 tumor xenograft; intraperitoneal 25 mg/kg three times a week): did not detect any difference
tumor growth suppression (UCI-101 tumor xenograft; stilbene 5c 20 mg/kg/day Monday to Friday for two weeks, bevacizumab 10 mg/kg twice a week for 5 doses): about 45%
area of tumor necrosis (H&E, qualitative) (UCI101 tumor xenografts): very small areas of tumor necrosis
tumor oxygen level after treatment ([1]; all three mice, within 20-30 min recording, baseline 15-60 mm Hg): less than 10 mm Hg
tumor blood flow after treatment, of the level before stilbene treatment ([1]; mice #1 and 3): less than 25%
tumor blood flow change ([1]; mouse #2 (low baseline flow 200-300)): significant in the beginning but subsequently recovered in some degree though still lower than baseline
